# Tests used:
# Format in all cases: biochemical
# Human MMP2 = target: T1, Human MMP2 (Homo sapiens, UniProt P08253); test: MMP2 inhibition experiment; conditions: concentration required for 50% inhibition of enzyme activity; read-out: IC50 value MMP-2
# T1 construct: purchased Calbiochem 444213
# T1 sequence (P08253 110-660): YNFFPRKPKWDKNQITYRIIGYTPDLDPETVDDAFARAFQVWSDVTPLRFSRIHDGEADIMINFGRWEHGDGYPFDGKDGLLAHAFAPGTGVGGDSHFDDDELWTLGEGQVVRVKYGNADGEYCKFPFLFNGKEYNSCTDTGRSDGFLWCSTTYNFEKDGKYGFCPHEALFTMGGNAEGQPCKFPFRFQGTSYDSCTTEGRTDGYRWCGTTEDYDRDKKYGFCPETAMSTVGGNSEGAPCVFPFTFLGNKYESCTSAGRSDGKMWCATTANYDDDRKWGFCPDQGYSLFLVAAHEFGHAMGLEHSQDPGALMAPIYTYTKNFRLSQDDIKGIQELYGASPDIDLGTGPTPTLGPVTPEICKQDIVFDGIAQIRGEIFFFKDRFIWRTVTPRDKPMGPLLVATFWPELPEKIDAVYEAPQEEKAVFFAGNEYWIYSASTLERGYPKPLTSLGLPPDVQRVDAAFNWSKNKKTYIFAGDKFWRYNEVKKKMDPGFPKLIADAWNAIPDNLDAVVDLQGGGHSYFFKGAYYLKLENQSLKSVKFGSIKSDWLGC
# Human MMP17 = target: T2, Human MMP17 (Homo sapiens, UniProt Q9ULZ9); test: MMP17 inhibition test; conditions: concentration required for 50% inhibition of enzyme activity; read-out: IC50 value MMP-17
# T2 construct: purchased Calbiochem 475940
# T2 sequence (Q9ULZ9 126-300 limits assumed): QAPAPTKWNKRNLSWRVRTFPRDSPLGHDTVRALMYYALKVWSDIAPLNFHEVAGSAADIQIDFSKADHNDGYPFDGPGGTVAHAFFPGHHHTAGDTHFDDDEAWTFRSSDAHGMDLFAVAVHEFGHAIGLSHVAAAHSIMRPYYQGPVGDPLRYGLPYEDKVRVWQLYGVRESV
# Human MMP1 = target: T3, Human MMP1 (Homo sapiens, UniProt P03956); test: MMP1 inhibition experiment; conditions: read-out: IC50 value MMP-1
# T3 construct: purchased Calbiochem 444208
# T3 sequence (P03956 100-469): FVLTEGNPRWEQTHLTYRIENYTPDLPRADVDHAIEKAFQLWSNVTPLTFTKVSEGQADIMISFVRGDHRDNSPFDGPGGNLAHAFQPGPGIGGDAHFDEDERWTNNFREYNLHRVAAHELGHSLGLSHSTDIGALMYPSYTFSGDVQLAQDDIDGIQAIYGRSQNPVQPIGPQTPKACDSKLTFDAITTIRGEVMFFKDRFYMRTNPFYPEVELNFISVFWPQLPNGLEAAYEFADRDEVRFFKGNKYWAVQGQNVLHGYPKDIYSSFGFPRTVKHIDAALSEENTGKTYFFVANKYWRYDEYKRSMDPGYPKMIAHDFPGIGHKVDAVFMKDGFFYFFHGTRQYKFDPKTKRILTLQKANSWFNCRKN
# TACE = target: T4, TACE (Homo sapiens, UniProt P78536); test: TACE inhibition experiment (in vitro)
# T4 construct: made in house; host or cells: mammalian cells or insect cells
# Human MMP9 = target: T5, Human MMP9 (Homo sapiens, UniProt P14780); test: MMP9 inhibition experiment; conditions: read-out: IC50 value MMP-9
# T5 construct: purchased Calbiochem 444231
# Human MMP3 = target: T6, Human MMP3 (Homo sapiens, UniProt P08254); test: MMP3 inhibition experiment; conditions: concentration required for 50% inhibition of enzyme activity; read-out: IC50 value MMP-3
# T6 construct: purchased Calbiochem 444217
# How it was run: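 Fluorescence-quenched substrate NFF-3 (MOCAc/Dnp peptide, 20 μM as prepared) cleaved by 5 ng human MMP3 over 5 hours at 37° C, with inhibition measured from substrate fluorescence.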
# Human MMP8 = target: T7, Human MMP8 (Homo sapiens, UniProt P22894); test: MMP8 inhibition experiment; conditions: concentration required for 50% inhibition of enzyme activity; read-out: IC50 value MMP-8
# T7 construct: purchased Calbiochem 444229
# Description: MMP inhibition experiment may be carried out using a fluorescent synthetic substrate according to, for example, the methods of Bickett et al. (D. Mark Bickett et al., Anal. Biochem., 1993, 212, 58-64) and Nagase et al. (H. Nagase et al., J. Biol. Chem., 1994, 269, 20952-20957). The methods of inhibition experiments carried out for various MMPs are described below.
# Human MMP8 (Calbiochem #444229) in amount of 90 μL (30 ng) was activated by mixing with 10 μL of 10 mM APMA, followed by reaction for 1 hour at 37° C. This enzyme solution in amount of 10 μL was diluted to 90 μL with the assay buffer A, which was added to 90 μL of […] fluorescent substrate (MOCAc-Pro-Leu-Gly-Leu-A2pr(Dnp)-Ala-Arg-NH2, Peptide Institute, Inc., #3163-v) prepared in the assay buffer B, followed by reaction for 5 hours at 37° C.
# Human MMP13 = target: T8, Human MMP13 (Homo sapiens, UniProt P45452); test: MMP13 inhibition experiment; conditions: concentration required for 50% inhibition of enzyme activity; read-out: IC50 value MMP-13
# T8 construct: purchased Chemicon CC068
# Human MMP14 = target: T9, Human MMP14 (Homo sapiens, UniProt P50281); test: MMP14 inhibition experiment; conditions: concentration required for 50% inhibition of enzyme activity; read-out: IC50 value MMP-14
# T9 construct: purchased Biogenesis or Calbiochem 5980-1461 or 475935
# How it was run: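 Fluorescence assay: substrate Dnp-Pro-Cha-Gly-Cys(Me)-His-Ala-Lys(Nma)-NH2 (20 μM before equal-volume mixing) incubated at 37° C for 5 hours with 4 ng human MMP14.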
# T7 sequence (P22894 101-467): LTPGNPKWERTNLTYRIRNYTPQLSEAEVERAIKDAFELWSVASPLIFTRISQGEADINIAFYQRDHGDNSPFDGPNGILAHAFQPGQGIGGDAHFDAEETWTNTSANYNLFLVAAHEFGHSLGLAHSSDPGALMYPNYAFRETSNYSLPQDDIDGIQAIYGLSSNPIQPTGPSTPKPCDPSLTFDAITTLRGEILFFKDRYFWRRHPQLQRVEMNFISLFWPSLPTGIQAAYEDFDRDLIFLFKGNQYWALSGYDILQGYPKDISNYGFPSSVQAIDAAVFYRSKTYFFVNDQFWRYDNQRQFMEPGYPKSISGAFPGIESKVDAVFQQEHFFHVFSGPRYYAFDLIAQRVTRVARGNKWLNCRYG
# T5 sequence (P14780 107-707 limits assumed): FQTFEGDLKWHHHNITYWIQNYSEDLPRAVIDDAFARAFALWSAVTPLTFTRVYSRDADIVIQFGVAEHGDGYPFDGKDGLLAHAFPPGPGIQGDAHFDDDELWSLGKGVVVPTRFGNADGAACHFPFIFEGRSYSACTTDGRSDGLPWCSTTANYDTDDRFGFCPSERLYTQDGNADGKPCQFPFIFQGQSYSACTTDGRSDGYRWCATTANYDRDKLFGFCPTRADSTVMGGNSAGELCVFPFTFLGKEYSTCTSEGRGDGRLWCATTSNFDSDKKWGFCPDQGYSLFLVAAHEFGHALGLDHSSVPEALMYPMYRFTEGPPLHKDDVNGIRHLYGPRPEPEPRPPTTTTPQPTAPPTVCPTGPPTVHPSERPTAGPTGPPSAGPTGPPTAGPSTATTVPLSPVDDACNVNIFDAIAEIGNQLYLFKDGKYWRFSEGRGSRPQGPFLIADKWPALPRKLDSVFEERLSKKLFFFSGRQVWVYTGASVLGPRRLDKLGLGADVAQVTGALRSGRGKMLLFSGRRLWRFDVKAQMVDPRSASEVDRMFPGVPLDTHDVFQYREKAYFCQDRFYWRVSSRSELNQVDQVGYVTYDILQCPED
# T4 sequence (P78536 215-824): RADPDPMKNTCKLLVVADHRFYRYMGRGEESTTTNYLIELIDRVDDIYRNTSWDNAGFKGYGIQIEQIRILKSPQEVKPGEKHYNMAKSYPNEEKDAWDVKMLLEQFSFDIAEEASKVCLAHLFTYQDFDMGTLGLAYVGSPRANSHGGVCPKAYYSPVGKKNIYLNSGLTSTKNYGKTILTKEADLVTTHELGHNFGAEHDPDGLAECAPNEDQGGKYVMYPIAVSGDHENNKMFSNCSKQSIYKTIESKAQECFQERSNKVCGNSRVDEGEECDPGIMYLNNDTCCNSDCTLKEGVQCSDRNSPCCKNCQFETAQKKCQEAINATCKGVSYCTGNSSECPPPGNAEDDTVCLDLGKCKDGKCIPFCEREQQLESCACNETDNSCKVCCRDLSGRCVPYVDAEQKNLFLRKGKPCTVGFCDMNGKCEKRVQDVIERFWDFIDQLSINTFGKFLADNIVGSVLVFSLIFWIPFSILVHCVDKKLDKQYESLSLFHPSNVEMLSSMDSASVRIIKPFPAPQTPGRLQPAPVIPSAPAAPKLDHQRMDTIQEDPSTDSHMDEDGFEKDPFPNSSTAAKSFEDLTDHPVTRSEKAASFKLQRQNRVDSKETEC
# T6 sequence (P08254 100-272 limits assumed): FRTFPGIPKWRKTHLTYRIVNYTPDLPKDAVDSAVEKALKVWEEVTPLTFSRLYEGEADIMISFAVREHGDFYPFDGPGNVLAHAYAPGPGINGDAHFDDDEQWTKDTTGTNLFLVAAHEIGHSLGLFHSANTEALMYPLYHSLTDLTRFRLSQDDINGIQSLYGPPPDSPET
IC50 (Human MMP2) [µM],IC50 (Human MMP17) [µM],IC50 (Human MMP1) [µM],IC50 (TACE) [µM],IC50 (Human MMP9) [µM],IC50 (Human MMP3) [µM],IC50 (Human MMP8) [µM],IC50 (Human MMP13) [µM],IC50 (Human MMP14) [µM],SMILES
1.4,0.2,60,0.013,31,0.2,5.8,3,30,Cc1cc(COc2ccc(S(=O)(=O)CC(CC3CCN(C(=O)c4ccccc4)CC3)N(O)C=O)cc2)c2ccccc2n1 (stereo not drawn) [Example I-50]
3.2,0.4,60,0.01,37,0.35,7.6,5.8,40,CCC(CC)C(=O)N1CCC(CC(CS(=O)(=O)c2ccc(OCc3cc(C)nc4ccccc34)cc2)N(O)C=O)CC1 (stereo not drawn) [Example I-51]
22,1.6,> 100,0.012,> 100,1,42,40,> 100,Cc1cc(COc2ccc(S(=O)(=O)CC(CN3CCN(S(C)(=O)=O)CC3)N(O)C=O)cc2)c2ccccc2n1 (stereo not drawn) [Example I-52]
13,0.4,> 100,0.01,> 100,0.6,25,40,> 100,COCC(=O)N1CCN(CC(CS(=O)(=O)c2ccc(OCc3cc(C)nc4ccccc34)cc2)N(O)C=O)CC1 (stereo not drawn) [Example I-53]
12,0.85,70,0.008,31,1.2,42,23,43,COc1ccc(C(=O)N2CCN(CC(CS(=O)(=O)c3ccc(OCc4cc(C)nc5ccccc45)cc3)N(O)C=O)CC2)cc1 (stereo not drawn) [Example I-54]
3.1,1.2,70,0.004,55,1,7.2,6.4,42,Cc1cc(COc2ccc(S(=O)(=O)CC(CCc3cccnc3)N(O)C=O)cc2)c2ccccc2n1 (stereo not drawn) [Example I-56]
> 100,4.6,42,0.012,60,6,> 100,33,33,Cc1ccc(C(C)(CS(=O)(=O)c2ccc(OCc3cc(C)nc4ccccc34)cc2)N(O)C=O)cc1 (stereo not drawn) [Example I-57]
21,0.58,> 100,0.0031,> 100,1.9,11,27,> 100,Cc1cc(COc2ccc(S(=O)(=O)CC(C3CSC(=O)N3C)N(O)C=O)cc2)c2ccccc2n1 (stereo not drawn) [Example I-58]
80,2.6,54,0.01,> 100,5.6,58,35,60,COc1ccc(CN2C(=O)SCC2C(CS(=O)(=O)c2ccc(OCc3cc(C)nc4ccccc34)cc2)N(O)C=O)cc1 (stereo not drawn) [Example I-59]
60,0.51,> 100,0.0083,> 100,2.5,10,56,> 100,"Cc1cc(COc2ccc(S(=O)(=O)CC(N(O)C=O)C3(C)CCOCC3)cc2)c2ccccc2n1 (stereo not drawn) [Example I-60, N-hydroxy-N-{2-[4-(2-methylquinolin-4-ylmethoxy)benzenesulfonyl]-1-(4-methyltetrahydropyran-4-yl)ethyl}formamide]"
5,1.8,80,0.0033,62,1.5,24,10,54,Cc1cc(COc2ccc(S(=O)(=O)CC(C=C3CCN(C(=O)OC(C)(C)C)CC3C)N(O)C=O)cc2)c2ccccc2n1 (stereo not drawn) [Example I-61]
30,2.2,64,0.002,75,2.4,60,32,65,CCC(CC)C(=O)N1CCC(=CC(CS(=O)(=O)c2ccc(OCc3cc(C)nc4ccccc34)cc2)N(O)C=O)C(C)C1 (stereo not drawn) [Example I-63]
9,0.58,57,0.0051,58,0.7,17,17,65,CCC(CC)C(=O)N1CCC(CC(CS(=O)(=O)c2ccc(OCc3cc(C)nc4ccccc34)cc2)N(O)C=O)C(C)C1 (stereo not drawn) [Example I-64]
20,1.4,> 100,0.003,> 100,2.7,18,30,70,Cc1cc(COc2ccc(S(=O)(=O)CC(c3cccnc3C)N(O)C=O)cc2)c2ccccc2n1 (stereo not drawn) [Example I-67]
1.5,0.22,80,0.023,50,0.5,8,0.53,40,Cc1cc(COc2ccc(S(=O)(=O)CC(C3CCN(C(=O)OC(C)(C)C)CC3)N(O)C=O)cc2)c2ccccc2n1 (stereo not drawn) [Example I-68]
9,0.45,> 100,0.0053,> 100,0.63,9.8,13,> 100,CC(=O)N1CCC(CC(CS(=O)(=O)c2ccc(OCc3cc(C)nc4ccccc34)cc2)N(O)C=O)CC1 (stereo not drawn) [Example I-69]
11,1.9,> 100,0.011,> 100,1.3,22,30,92,Cc1cc(COc2ccc(S(=O)(=O)CC(CC3CCN(S(C)(=O)=O)CC3)N(O)C=O)cc2)c2ccccc2n1 (stereo not drawn) [Example I-70]
